Reference: patent US20150344427A1 (EPIZYME, INC., priority 2012, published 2015)

target: T1, EZH2 Y641F mutant (PRC2 enzyme) (Homo sapiens, UniProt Q15910, Y641F); test: PRC2 enzyme assay on peptide substrate, EZH2 Y641F mutant; format: biochemical; settings: Y641F mutant PRC2 enzyme 4 nM, H3K27me2 peptide, 3H-SAM Flashplate
T1 construct: made in house; host or cells: Spodoptera frugiperda (sf9) cells, baculovirus
Text: General Materials. S-adenosylmethionine (SAM), S-adenosylhomocyteine (SAH), bicine, KCl, Tween20, dimethylsulfoxide (DMSO) and bovine skin gelatin (BSG) were purchased from Sigma-Aldrich at the highest level of purity possible. Dithiothreitol (DTT) was purchased from EMD. ^3H-SAM was purchased from American Radiolabeled Chemicals with a specific activity of 80 Ci/mmol. 384-well streptavidin Flashplates were purchased from PerkinElmer.
Peptides representative of human histone H3 residues 21-44 containing either an unmodified lysine 27 (H3K27me0) or dimethylated lysine 27 (H3K27me2) were synthesized with a C-terminal G(K-biotin) linker-affinity tag motif and a C-terminal amide cap by 21st Century Biochemicals. […] The sequences are listed below.
Human PRC2 enzymes were purified as 4-component enzyme complexes co-expressed in Spodoptera frugiperda (sf9) cells using a baculovirus expression system. […] The EED subunit contained an N-terminal FLAG tag that was used to purify the entire 4-component complex from sf9 cell lysates.
The assays were all performed in a buffer consisting of 20 mM bicine (pH=7.6), 0.5 mM DTT, 0.005% BSG and 0.002% Tween20, prepared on the day of use. Compounds in 100% DMSO (1 μL) were spotted into polypropylene 384-well V-bottom plates (Greiner) using a Platemate 2×3 outfitted with a 384-channel pipet head (Thermo). DMSO (1 μL) was added to columns 11, 12, 23, 24, rows A-H for the maximum signal control, and SAH, a known product and inhibitor of PRC2 (1 μL) was added to columns 11,12, 23, 24, rows I-P for the minimum signal control. A cocktail (40 μL) containing the wild-type PRC2 enzyme and H3K27me0 peptide or any of the Y641 mutant enzymes and H3K27me2 peptide was added by Multidrop Combi (Thermo). The compounds were allowed to incubate with PRC2 for 30 min at 25° C., then a cocktail (10 μL) containing a mixture of non-radioactive and ^3H-SAM was added to initiate the reaction (final volume=51 μL). In all cases, the final concentrations were as follows: wild-type or mutant PRC2 enzyme was 4 nM, SAH in the minimum signal control wells was 1 mM and the DMSO concentration was 1%. The assays were stopped by the addition of non-radioactive SAM (10 μL) to a final concentration of 600 μM, which dilutes the ^3H-SAM to a level where its incorporation into the peptide substrate is no longer detectable. 50 μL of the reaction in the 384-well polypropylene plate was then transferred to a 384-well Flashplate and the biotinylated peptides were allowed to bind to the streptavidin surface for at least 1 h before being washed three times with 0.1% Tween20 in a Biotek ELx405 plate washer. The plates were then read in a PerkinElmer TopCount platereader to measure the quantity of ^3H-labeled peptide bound to the Flashplate surface, measured as disintegrations per minute (dpm) or alternatively, referred to as counts per minute (cpm).
Where dpm=disintegrations per minute, cmpd=signal in assay well, and min and max are the respective minimum and maximum signal controls.
Where top and bottom are the normally allowed to float, but may be fixed at 100 or 0 respectively in a 3-parameter fit. The Hill Coefficient normally allowed to float but may also be fixed at 1 in a 3-parameter fit. Y is the % inhibition and X is the compound concentration.

T1 sequence (Q15910 whole entry Y641F): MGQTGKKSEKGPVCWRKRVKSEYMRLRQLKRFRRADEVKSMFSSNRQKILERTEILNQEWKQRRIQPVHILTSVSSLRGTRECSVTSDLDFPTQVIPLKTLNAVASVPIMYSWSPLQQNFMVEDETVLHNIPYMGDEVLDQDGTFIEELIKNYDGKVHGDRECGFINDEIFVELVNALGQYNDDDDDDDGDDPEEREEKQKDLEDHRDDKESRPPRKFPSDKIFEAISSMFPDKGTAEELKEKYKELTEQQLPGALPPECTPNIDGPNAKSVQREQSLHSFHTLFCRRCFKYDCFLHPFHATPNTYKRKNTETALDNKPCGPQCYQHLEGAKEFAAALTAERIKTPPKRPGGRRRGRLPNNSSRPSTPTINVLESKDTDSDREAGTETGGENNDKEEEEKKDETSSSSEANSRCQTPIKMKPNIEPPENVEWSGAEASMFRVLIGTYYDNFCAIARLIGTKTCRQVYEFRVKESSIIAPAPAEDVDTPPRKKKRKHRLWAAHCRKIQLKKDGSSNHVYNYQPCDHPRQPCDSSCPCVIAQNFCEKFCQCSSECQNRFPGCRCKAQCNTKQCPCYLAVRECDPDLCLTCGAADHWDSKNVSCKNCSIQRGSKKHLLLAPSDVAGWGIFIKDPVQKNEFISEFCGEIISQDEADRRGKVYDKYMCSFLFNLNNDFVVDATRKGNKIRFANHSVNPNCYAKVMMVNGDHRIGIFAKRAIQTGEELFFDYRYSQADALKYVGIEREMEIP
T1 sequence (O75530 whole entry partner): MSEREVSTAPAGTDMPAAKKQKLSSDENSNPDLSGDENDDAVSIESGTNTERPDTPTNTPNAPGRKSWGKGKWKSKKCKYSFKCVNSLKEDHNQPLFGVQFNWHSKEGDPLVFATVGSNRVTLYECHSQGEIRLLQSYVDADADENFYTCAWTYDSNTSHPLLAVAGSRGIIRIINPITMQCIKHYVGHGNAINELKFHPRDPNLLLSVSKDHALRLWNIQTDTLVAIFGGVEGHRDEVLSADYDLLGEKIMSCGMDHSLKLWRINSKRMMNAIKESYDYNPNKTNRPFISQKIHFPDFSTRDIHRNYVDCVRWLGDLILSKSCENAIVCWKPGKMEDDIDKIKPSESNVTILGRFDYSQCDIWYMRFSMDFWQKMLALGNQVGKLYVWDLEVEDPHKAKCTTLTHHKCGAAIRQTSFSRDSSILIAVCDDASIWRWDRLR
T1 sequence (Q15022 whole entry partner): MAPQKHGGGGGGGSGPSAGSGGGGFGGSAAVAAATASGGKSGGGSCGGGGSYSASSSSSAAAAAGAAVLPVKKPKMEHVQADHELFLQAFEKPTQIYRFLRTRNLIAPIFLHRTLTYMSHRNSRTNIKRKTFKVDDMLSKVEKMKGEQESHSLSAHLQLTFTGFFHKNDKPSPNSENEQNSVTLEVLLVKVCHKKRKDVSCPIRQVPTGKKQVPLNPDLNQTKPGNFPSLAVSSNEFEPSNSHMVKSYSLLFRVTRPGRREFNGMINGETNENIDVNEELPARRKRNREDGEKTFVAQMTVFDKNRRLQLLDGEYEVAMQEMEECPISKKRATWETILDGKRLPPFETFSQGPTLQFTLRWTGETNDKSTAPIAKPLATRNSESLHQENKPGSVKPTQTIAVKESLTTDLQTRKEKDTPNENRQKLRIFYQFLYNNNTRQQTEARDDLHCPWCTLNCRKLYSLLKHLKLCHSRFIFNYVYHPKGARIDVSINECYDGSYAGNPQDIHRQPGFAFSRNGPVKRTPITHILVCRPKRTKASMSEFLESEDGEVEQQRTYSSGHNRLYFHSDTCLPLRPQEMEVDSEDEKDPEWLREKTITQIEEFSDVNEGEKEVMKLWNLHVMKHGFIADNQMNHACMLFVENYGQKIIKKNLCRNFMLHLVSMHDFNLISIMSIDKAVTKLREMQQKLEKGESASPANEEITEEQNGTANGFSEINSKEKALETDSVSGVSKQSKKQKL
T1 sequence (Q09028 whole entry partner): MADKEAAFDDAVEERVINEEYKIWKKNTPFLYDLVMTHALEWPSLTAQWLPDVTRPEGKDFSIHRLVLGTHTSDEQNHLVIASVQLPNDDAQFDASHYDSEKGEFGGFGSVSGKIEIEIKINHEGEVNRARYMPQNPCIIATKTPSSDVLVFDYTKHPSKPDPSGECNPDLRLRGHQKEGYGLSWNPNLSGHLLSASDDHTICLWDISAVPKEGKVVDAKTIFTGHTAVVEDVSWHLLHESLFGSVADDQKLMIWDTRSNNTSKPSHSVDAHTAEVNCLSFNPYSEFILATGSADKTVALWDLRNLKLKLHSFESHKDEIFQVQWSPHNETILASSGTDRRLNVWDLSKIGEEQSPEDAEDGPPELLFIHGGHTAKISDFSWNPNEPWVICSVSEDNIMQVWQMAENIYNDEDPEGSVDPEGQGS

Row | Structure (SMILES) | IC50 [nM]
1 | CCN(c1cc(Cl)cc(C(=O)NCc2c(C)[nH]c(C)cc2=O)c1C)[C@H]1CC[C@H](N(C)C)CC1 [Compound 1, 5-chloro-N-((2,6-dimethyl-4-oxo-1,4-dihydropyridin-3-yl)methyl)-3-(((trans)-4-(dimethylamino)cyclohexyl)(ethyl)amino)-2-methylbenzamide] | 40
2 | CCN(c1cc(Cl)cc(C(=O)NCc2c(C)n(C)c(C)cc2=O)c1C)[C@H]1CC[C@H](N(C)C)CC1 [Compound 86] | > 50000
3 | CCn1c(C)cc(=O)c(CNC(=O)c2cc(Cl)cc(N(CC)[C@H]3CC[C@H](N(C)C)CC3)c2C)c1C [Compound 87] | 37400
4 | CCN(c1cc(-c2ccc(COC)nc2)cc(C(=O)NCc2c(Cl)[nH]c(C)cc2=O)c1C)[C@H]1CC[C@H](N(C)C)CC1 [Compound 88] | 46
5 | CCN(c1cc(-c2cnn(C)c2)cc(C(=O)NCc2c(Cl)[nH]c(C)cc2=O)c1C)[C@H]1CC[C@H](N(C)C)CC1 [Compound 89] | 229
6 | CCN(c1cc(-c2ccc(C)nc2)cc(C(=O)NCc2c(Cl)[nH]c(C)cc2=O)c1C)[C@H]1CC[C@H](N(C)C)CC1 [Compound 90] | 40
7 | CCN(c1cc(-c2cnc(C)cn2)cc(C(=O)NCc2c(Cl)[nH]c(C)cc2=O)c1C)[C@H]1CC[C@H](N(C)C)CC1 [Compound 91] | 49
8 | CCN(c1cc(-c2ccc(OCCOC)cc2)cc(C(=O)NCc2c(Cl)[nH]c(C)cc2=O)c1C)[C@H]1CC[C@H](N(C)C)CC1 [Compound 92] | 23
9 | CCN(c1cc(-c2ccc(OCCOC)cc2)cc(C(=O)NCc2c(C)[nH]c(C)cc2=O)c1C)[C@H]1CC[C@H](N(C)C)CC1 [Compound 93] | 5
10 | CCCN(c1cc(-c2ccc(OCCOC)cc2)cc(C(=O)NCc2c(C)[nH]c(C)cc2=O)c1C)[C@H]1CC[C@H](N(C)C)CC1 [Compound 94] | 7
11 | CCN(c1cc(-c2ccc(OCCOC)cc2)cc(C(=O)NCc2c(C)[nH]c(C)cc2=O)c1C)[C@H]1CC[C@H](N(C)CCOC)CC1 [Compound 100] | 18
